Assay [1] can be described thus: Binding affinity to glutathione assessed as typical half life.
Assay [2] in a line: Binding affinity to cysteine assessed as typical half life.
A short description of assay [3]: Binding affinity to cysteine assessed as typical half life at 1.4 nM.
A short description of assay [4]: Binding affinity to glutathione assessed as typical half life at 1.4 nM.

Where only a bound is given, the exact number is not on record here.

`COC(=O)C1=C(C#N)NC(C)=C(C(=O)OC(C)C)C1c1cccc([N+](=O)[O-])c1` (stereo not given): the results for the T1/2 in assay [1] and in assay [2] were 40 h and 2 h, respectively. As for `CCCN1CCN(c2ccc(C(=O)NC3(C(=O)NCC#N)CCCCC3)cc2)CC1`, the values for the T1/2 in assay [3] and in assay [4] were less than 10 h and 97 h, respectively. For `COCCN1CCC(Cc2ccc(C(=O)NCc3cnc(C#N)nc3NCC(C)(C)C)cc2)CC1`, the T1/2 in assay [1] came to 7.3 h.
